Assay results: ChEMBL document CHEMBL1153801, “4-(Benzimidazol-2-yl)-1,2,5-oxadiazol-3-ylamine derivatives: potent and selective p70S6 kinase inhibitors” (Bioorg Med Chem Lett, 2009)
pKi: −log10 of the molar value.

What was measured:
[1] = biological target: Rho-associated protein kinase 1 (Homo sapiens, UniProt Q13464)
Description: Inhibition of ROCK1 assessed as decrease in NADH absorbance at 340 nm in the presence of

[2] = biological target: Ribosomal protein S6 kinase beta-1 (Homo sapiens, UniProt P23443); assay: Inhibition of p70S6K assessed as decrease in NADH absorbance at 340 nm in the presence of
Ribosomal protein S6 kinase beta-1, sequence (P23443 whole entry): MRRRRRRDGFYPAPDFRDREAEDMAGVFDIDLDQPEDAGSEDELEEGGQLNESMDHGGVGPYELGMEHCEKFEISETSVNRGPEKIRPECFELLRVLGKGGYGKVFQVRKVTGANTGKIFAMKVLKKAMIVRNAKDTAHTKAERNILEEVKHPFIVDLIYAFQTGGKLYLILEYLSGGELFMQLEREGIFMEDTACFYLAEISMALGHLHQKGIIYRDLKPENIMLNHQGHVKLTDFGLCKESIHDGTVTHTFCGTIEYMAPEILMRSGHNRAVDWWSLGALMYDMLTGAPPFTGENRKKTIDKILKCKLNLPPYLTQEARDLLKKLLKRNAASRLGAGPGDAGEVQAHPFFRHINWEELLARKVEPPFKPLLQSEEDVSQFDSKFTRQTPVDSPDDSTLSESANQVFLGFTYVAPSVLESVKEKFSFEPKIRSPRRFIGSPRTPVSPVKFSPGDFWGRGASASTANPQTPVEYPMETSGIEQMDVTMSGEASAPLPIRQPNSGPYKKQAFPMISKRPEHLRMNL

[3] = biological target: cAMP-dependent protein kinase catalytic subunit alpha (Homo sapiens, UniProt P17612); assay: Inhibition of PKAalpha assessed as decrease in NADH absorbance at 340 nm in the presence of
[4] = biological target: Glycogen synthase kinase-3 beta (Homo sapiens, UniProt P49841)
Glycogen synthase kinase-3 beta, sequence (P49841 whole entry): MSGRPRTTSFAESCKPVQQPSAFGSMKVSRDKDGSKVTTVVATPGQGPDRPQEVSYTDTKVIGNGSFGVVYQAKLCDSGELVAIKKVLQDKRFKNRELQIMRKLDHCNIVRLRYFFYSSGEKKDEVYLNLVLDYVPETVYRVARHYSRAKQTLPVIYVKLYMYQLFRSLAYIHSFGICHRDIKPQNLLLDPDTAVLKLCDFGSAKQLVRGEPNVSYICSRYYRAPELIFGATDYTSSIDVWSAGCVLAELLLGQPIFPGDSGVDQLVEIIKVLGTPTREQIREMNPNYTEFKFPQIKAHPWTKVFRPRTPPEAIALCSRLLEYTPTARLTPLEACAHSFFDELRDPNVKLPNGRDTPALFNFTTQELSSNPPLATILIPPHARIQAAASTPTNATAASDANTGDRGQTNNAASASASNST

Rho-associated protein kinase 1, sequence (Q13464 whole entry): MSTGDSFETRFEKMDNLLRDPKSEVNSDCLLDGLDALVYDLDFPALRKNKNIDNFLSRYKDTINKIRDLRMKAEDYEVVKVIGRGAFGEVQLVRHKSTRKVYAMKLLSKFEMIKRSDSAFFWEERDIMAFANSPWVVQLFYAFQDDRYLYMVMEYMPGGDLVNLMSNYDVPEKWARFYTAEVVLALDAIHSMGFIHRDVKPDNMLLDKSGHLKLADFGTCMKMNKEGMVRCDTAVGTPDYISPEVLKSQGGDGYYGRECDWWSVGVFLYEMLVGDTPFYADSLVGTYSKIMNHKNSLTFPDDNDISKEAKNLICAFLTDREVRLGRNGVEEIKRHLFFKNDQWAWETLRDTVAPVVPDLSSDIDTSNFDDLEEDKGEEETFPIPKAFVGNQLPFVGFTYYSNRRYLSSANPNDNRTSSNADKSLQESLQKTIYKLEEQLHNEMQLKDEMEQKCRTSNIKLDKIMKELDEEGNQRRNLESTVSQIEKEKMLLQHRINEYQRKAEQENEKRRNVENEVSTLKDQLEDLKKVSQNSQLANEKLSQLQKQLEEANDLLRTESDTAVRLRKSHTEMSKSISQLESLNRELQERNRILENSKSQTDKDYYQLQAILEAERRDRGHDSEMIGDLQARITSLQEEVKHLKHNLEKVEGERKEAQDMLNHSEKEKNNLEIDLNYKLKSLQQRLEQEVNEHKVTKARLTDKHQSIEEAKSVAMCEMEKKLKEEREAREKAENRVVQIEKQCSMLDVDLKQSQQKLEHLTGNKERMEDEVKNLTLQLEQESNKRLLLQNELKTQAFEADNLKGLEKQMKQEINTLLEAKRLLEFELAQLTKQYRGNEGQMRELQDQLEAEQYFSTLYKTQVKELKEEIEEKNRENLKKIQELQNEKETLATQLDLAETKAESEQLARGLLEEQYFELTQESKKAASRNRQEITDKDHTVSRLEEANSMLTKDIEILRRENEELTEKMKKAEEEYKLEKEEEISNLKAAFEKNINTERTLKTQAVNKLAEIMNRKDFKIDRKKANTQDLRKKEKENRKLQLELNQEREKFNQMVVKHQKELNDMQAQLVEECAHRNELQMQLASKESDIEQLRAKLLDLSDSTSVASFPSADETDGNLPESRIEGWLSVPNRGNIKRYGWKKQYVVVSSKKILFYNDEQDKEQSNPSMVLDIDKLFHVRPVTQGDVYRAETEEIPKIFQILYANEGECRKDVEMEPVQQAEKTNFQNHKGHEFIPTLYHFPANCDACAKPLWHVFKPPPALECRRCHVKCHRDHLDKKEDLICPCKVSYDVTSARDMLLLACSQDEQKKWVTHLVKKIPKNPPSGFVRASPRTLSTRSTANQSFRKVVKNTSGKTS

SMILES | pKi [1] | pKi [2] | pKi [3] | pKi [4]
Cc1ccc2c(c1)nc(-c1nonc1N)n2C1CCC1 | < 5.48 | 7.72 | 5.59 | 5.49
Nc1nonc1-c1nc2ccccc2n1C1CCC1 | 6.74 | 8.40 | 6.27 | 6.42
Nc1ccc2c(c1)nc(-c1nonc1N)n2C1CCC1 | 7.07 | > 9.00 | 7.47 | 5.68
CCn1c(-c2nonc2N)nc2ccccc21 [GW549034X] | 6.48 | 7.30 | 6.02 | 6.15
Nc1nonc1-c1nc2ccccc2n1C1CCCC1 | 6.47 | 7.89 | 6.14 | 6.68
Nc1nonc1-c1nc2ccccc2n1CC1CCC1 | – | 7.16 | 5.85 | –
COC(=O)c1ccc2c(c1)nc(-c1nonc1N)n2C1CCC1 | < 5.48 | 6.39 | < 5.48 | < 5.48
Nc1nonc1-c1nc2ccccc2n1CC1CC1 | 6.44 | 7.92 | 6.42 | 6.54
Nc1nonc1-c1nc2cc(CO)ccc2n1C1CCC1 | < 5.48 | 7.80 | 5.82 | < 5.48
CC(C)Cn1cc(-c2ccccc2)nc1-c1nonc1N | < 5.48 | 7.05 | 5.92 | < 5.48
CC(C)n1c(-c2nonc2N)nc2ccccc21 | 5.72 | 7.40 | < 5.48 | 5.82
COc1ccc2c(c1)nc(-c1nonc1N)n2C1CCC1 | 6.03 | 7.41 | 5.60 | 6.34
N#Cc1ccccc1-n1c(-c2nonc2N)nc2ccccc21 | 6.09 | 7.59 | < 5.30 | < 5.48
COc1ccc(-n2c(-c3nonc3N)nc3ccccc32)cc1 | 5.68 | 6.26 | < 5.40 | < 5.30
COc1ccccc1-n1c(-c2nonc2N)nc2ccccc21 | 5.89 | 7.51 | < 5.30 | < 5.30
Nc1nonc1-c1nc2ccccc2n1C1CCCCC1 | 6.14 | 7.92 | 6.22 | 6.62
Cn1c(-c2nonc2N)nc2ccccc21 | < 5.48 | 6.27 | < 5.40 | 5.14
COc1cccc(-n2c(-c3nonc3N)nc3ccccc32)c1 | < 5.30 | 5.72 | – | < 5.30
N#Cc1ccc(-n2c(-c3nonc3N)nc3ccccc32)cc1 | < 5.60 | 6.10 | < 5.30 | 6.00
Nc1nonc1-c1nc2cc(O)ccc2n1C1CCC1 | 5.66 | > 9.00 | 5.55 | 5.96
Nc1nonc1-c1nc2ccccc2n1C1CC1 | 6.35 | 7.02 | < 5.48 | < 5.48
Nc1nonc1-c1nc2ccccc2n1-c1ccccc1 | 6.23 | 6.96 | 5.89 | 6.21
CC(C)Cn1cc(C#N)nc1-c1nonc1N | < 5.48 | 5.80 | < 5.48 | < 5.48
CC(C)Cn1c(-c2nonc2N)nc2ccccc21 | 6.03 | 7.66 | 5.96 | –
Cc1cn(CC(C)C)c(-c2nonc2N)n1 | < 5.48 | 6.47 | < 5.48 | 6.16
N#Cc1cccc(-n2c(-c3nonc3N)nc3ccccc32)c1 | < 5.60 | 6.10 | < 5.30 | < 5.60
CC(=O)Nc1ccc2c(c1)nc(-c1nonc1N)n2C1CCC1 | < 5.48 | 5.66 | < 5.48 | < 5.48
